Biological target: T1, CazL (Chaetomium globosum, UniProt Q2GWL0)
T1 sequence (Q2GWL0 1-455): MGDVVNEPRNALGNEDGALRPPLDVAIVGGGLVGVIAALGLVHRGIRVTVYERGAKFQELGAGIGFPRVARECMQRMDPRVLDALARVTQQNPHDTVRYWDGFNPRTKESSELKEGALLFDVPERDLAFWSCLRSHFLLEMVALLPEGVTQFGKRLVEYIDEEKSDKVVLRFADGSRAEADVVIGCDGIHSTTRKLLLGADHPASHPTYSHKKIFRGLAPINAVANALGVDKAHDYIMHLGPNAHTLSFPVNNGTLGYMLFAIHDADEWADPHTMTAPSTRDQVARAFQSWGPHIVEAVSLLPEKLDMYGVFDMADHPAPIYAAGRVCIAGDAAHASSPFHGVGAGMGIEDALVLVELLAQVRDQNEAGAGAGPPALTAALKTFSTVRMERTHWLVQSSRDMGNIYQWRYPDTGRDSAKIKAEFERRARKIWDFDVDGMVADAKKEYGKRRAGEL
Experiment: initial velocity kinetics of pyranoquinone formation
Type: biochemical
Details: formation of 5

Work on cazaldehyde A [compound 1] yielded a Km of 73 ± 9.93 µM.
